Several values for one entry are separate records, joined by “and”; a condition that tells them apart may be missing. Equal entries are not always repeated.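 Five concentrations, 48 hours, 96-well plates. Here, GI50 denotes the concentration required for 50% inhibition of growth. At the TGI there is no net growth.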 Where a SMILES comes first, the peptide text is derived from it.
Assays:
Assay in all cases: growth of human tumour cells (NCI), 48 h
786-0 renal = tested on: 786-0 renal
DMS 114 small cell lung = tested on: DMS 114 small cell lung
M19-MEL melanoma = tested on: M19-MEL melanoma
TK-10 renal = tested on: TK-10 renal
CAKI-1 renal = tested on: CAKI-1 renal
HCT-116 colon = tested on: HCT-116 colon
HOP-92 NSCLC = tested on: HOP-92 NSCLC
KM20L2 colon = tested on: KM20L2 colon
BT-549 breast = tested on: BT-549 breast
MDA-MB-435 = tested on: MDA-MB-435

Compound	TGI (786-0 renal) [µM]	TGI (DMS 114 small cell lung) [µM]	TGI (M19-MEL melanoma) [µM]	TGI (TK-10 renal) [µM]	GI50 (786-0 renal) [µM]	GI50 (CAKI-1 renal) [µM]	TGI (CAKI-1 renal)	GI50 (HCT-116 colon) [µM]	TGI (HCT-116 colon) [µM]	GI50 (HOP-92 NSCLC) [µM]	TGI (HOP-92 NSCLC)	GI50 (KM20L2 colon) [µM]	TGI (KM20L2 colon) [µM]	GI50 (TK-10 renal) [µM]	TGI (BT-549 breast) [µM]	TGI (MDA-MB-435) [µM]	GI50 (DMS 114 small cell lung) [µM]
O=C1C(=O)N(C(=O)c2ccc(Cl)c(Cl)c2)c2ccc(Cl)cc21	> 100	66	39.9	> 100	–	–	–	–	–	–	–	–	–	–	–	–	–
N.N.N.N.N.N.[I-].[Os]	> 100	–	–	> 100	> 100	> 100	> 100 µM	> 100	> 100	> 100	> 100 µM	> 100	> 100	> 100	–	–	–
C#CCOCn1cnc2c(=S)nc[nH]c21	> 100	> 100	> 100	> 100	–	–	> 100 µM	–	–	–	> 100 µM	–	> 100	–	–	–	–
CC1(C)OC(C(N)=O)=C(C(N)=O)O1	> 100	> 100	> 100	> 100	–	–	> 100 µM	–	> 100	–	> 100 µM	–	> 100	–	–	–	–
Cc1c(C(=O)CC(=O)C(=O)Nc2ccc(Cl)c(Cl)c2)[n+](=O)c2ccccc2n1[O-]	69	34.3	33.3	> 100	–	–	> 100 µM	–	35.4	–	> 100 µM	–	> 100	–	–	–	–
CCC(C)OC(=O)C1C2CCC(O2)C1C(=O)O (centres undefined)	> 62.7	> 56.4	> 100	> 100	–	–	> 100 µM	–	> 56.3	–	> 100 µM	–	> 63.5	–	–	–	–
N/C(=N\N=C\c1cccs1)NO	> 100	> 100	> 100	> 100	–	–	> 100 µM	–	> 100	–	> 100 µM	–	–	–	–	–	–
COc1ccc(C(c2ccc(C(C)C)cc(=O)c2O)c2ccc3cccnc3c2O)cc1 (centres undefined)	5.61	0.645	2.54	–	–	–	5.15 µM	–	12.8	–	0.898 µM	–	–	–	–	–	–
CCc1ccccc1NC(=O)CCc1n[nH]c(=S)o1	> 100	> 100	> 100	> 100	–	–	> 100 µM	–	42.5	–	> 100 µM	–	> 100	–	–	–	–
CN=C1Nc2ccc(Cl)cc2C(c2ccccc2)=NN1C	> 100	> 100	> 100	> 100	–	–	> 100 µM	–	> 100	–	77.5 µM	–	> 100	–	–	–	–
CC(=O)NC(CCCCNC(=O)N(CCCl)N=O)C(=O)NCc1ccccc1 (centres undefined)	> 100	> 100	> 100	–	–	–	> 100 µM	–	> 100	–	> 100 µM	–	> 100	–	–	–	–
CC(=O)OCc1cc(OC(C)=O)cnc1COC(C)=O	> 100	> 100	> 100	> 100	–	–	> 100 µM	–	> 100	–	> 100 µM	–	> 100	–	–	–	–
COc1cc(-c2cc(=O)c3ccccc3o2)ccc1N	> 100	> 100	> 100	> 100	–	–	77.5 µM	–	> 100	–	> 100 µM	–	> 100	–	–	–	–
ClC1CCC2OOC1O2 (centres undefined)	> 100	> 100	> 100	> 100	–	–	> 100 µM	–	> 100	–	> 100 µM	–	> 100	–	–	–	–
COc1cc2nc(Sc3c([N+](=O)[O-])ncn3C)[nH]c2cc1OC	> 100	25.8	> 100	67.3	–	–	37.2 µM	–	> 100	–	45 µM	–	> 100	–	–	–	–
CC(=O)O[C@H]1C(=O)O[C@@H]2C[C@H]3C(C)=CC(=O)[C@@H](O)[C@]3(C)[C@H]3[C@@]4(O)OC[C@]32[C@@H]1[C@@H](C)[C@H]4O	0.14	0.041	0.072	–	–	0.0752	2.36 µM and 2.13 µM	< 0.01	–	0.0288	0.216 µM and 0.124 µM	–	2.43	–	0.513	0.233	–
O=C(O)c1ccc(O)c(N=Nc2cc(S(=O)(=O)O)c3ccccc3c2O)c1	> 100	> 100	> 100	> 100	–	–	> 100 µM	–	37.4	–	> 100 µM	–	> 100	–	–	–	–
O=c1c2ccccc2nc(-c2ccc(Br)cc2)n1NC1OC(CO)C(O)C(O)C1O (centres undefined)	> 100	> 100	> 100	> 100	–	–	> 100 µM	–	> 100	–	> 100 µM	–	> 100	–	–	–	–
N=C1N(c2ccccc2)C(=O)C23CCCC2C13N1CCOCC1 (centres undefined)	> 100	> 100	> 100	–	–	–	> 100 µM	–	> 100	–	> 100 µM	–	> 100	–	–	–	–

Compound	TGI (786-0 renal) [µM]	TGI (DMS 114 small cell lung) [µM]	TGI (M19-MEL melanoma) [µM]	TGI (TK-10 renal) [µM]	GI50 (786-0 renal) [µM]	GI50 (CAKI-1 renal) [µM]	TGI (CAKI-1 renal)	GI50 (HCT-116 colon) [µM]	TGI (HCT-116 colon) [µM]	GI50 (HOP-92 NSCLC) [µM]	TGI (HOP-92 NSCLC)	GI50 (KM20L2 colon) [µM]	TGI (KM20L2 colon) [µM]	GI50 (TK-10 renal) [µM]	TGI (BT-549 breast) [µM]	TGI (MDA-MB-435) [µM]	GI50 (DMS 114 small cell lung) [µM]
Cc1ccc([N+](=O)[O-])cc1NC(=O)C(=O)Cc1occc(=O)c1O	> 100	> 100	> 100	> 100	–	–	> 100 µM	–	–	–	> 100 µM	–	> 100	–	–	–	–
C[C@@H](CO)OCOCc1ccccc1	> 100	> 100	> 100	–	–	–	> 100 µM	–	> 100	–	> 100 µM	–	–	–	–	–	–
COC(=O)C1=CN=C(C(=O)OC)NN1	> 100	> 100	> 100	> 100	–	–	> 100 µM	–	> 100	–	> 100 µM	–	> 100	–	–	–	–
C/C=C/C=N/N(C(=O)c1cc([N+](=O)[O-])cc([N+](=O)[O-])c1)C1=NC(c2ccccc2)C(c2ccccc2)=NN1 (centres undefined)	> 100	48.4	46.2	> 100	–	–	> 100 µM	–	84.8	–	62.2 µM	–	93.9	–	–	–	–
Cc1oc2c(C)c(O)c3c(c2c1C1(C)OCCO1)C(=O)C=C(Cl)C3=O	> 100	–	> 100	> 100	–	–	> 100 µM	–	> 100	–	> 100 µM	–	> 100	–	–	–	–
Cc1ccccc1NC(=O)C(=O)C(c1cnc2ccc([N+](=O)[O-])cc2n1)[N+](=O)[O-] (centres undefined)	> 100	> 100	> 100	> 100	–	–	> 100 µM	–	> 100	–	> 100 µM	–	> 100	–	–	–	–
COc1ccc(NC(=O)C(=O)C2CNC(=O)NC2=O)c(OC)c1 (centres undefined)	> 100	> 100	–	> 100	–	–	> 100 µM	–	> 100	–	> 100 µM	–	> 100	–	–	–	–
CC(C)CC(NC(=O)C(CC(C)C)NC(=O)C(Cc1cnc[nH]1)NC(=O)C(C)NC(=O)C(NC(=O)C(C)NC(=O)C(Cc1c[nH]c2ccccc12)NC(=O)C(CCC(=O)O)NC(=O)C(N)Cc1ccccc1)C(C)C)C(N)=O (centres undefined) (H-FEWAVAHLL-NH2; configuration not given here)	> 100	> 100	> 100	–	> 100	> 100	> 100 µM	> 100	> 100	–	–	–	> 100	–	–	> 12.5	–
CN(C)C(=O)/N=c1\ss/c(=N\C(=S)N(C)C)n1-c1ccccc1	47.1	–	> 100	84.7	–	2.76	> 100 µM	–	47.1	–	> 100 µM	–	> 100	–	–	–	0.0334
NC(=O)N/N=C(\C(=O)C(=O)Nc1ccc(Cl)c(C(F)(F)F)c1)c1nc2ccc(C(=O)c3ccccc3)cc2[nH]c1=O	> 100	> 100	> 100	> 100	–	–	> 100 µM	–	> 100	–	47.3 µM	–	> 100	–	–	–	–
Nc1ncnc(NC2C=C(CO)C(O)C2O)c1[N+](=O)[O-] (centres undefined)	> 100	> 100	> 100	> 100	–	–	> 100 µM	–	75.4	–	–	–	> 100	–	–	–	–
C=C[C@]1(C)CCC2=C(CCC3C2(C)CCC[C@]3(C)CO)C1 (some centres undefined)	> 100	74.6	> 100	> 100	–	–	> 100 µM	–	> 100	–	> 100 µM	–	42.3	–	–	–	–
COC(=O)C(C(=O)C(=O)NC1=C(Cl)C(=O)c2ccccc2C1=O)c1csc(-n2nc(-c3ccccc3)cc2-c2ccccc2)n1 (centres undefined)	> 100	> 100	> 100	> 100	–	–	> 100 µM	–	> 100	–	> 100 µM	–	> 100	–	–	–	–
CNNCc1ccc(C(=O)NC(C)C)cc1	> 500	–	> 500	> 500	> 500	> 500	> 500 µM	–	> 500	459	391 µM and > 500 µM	> 500	> 500	–	> 500	> 500	–
COC(=O)/C(C#N)=C1\CCC(O)N1C (centres undefined)	> 100	> 100	–	> 100	–	–	> 100 µM	–	> 100	–	–	–	> 100	–	–	–	–
COc1ccc2c(c1)CCc1c(-c3noc4c3CCc3cc(OC)ccc3-4)noc1-2	> 100	–	–	> 100	–	–	> 100 µM	–	> 100	–	> 100 µM	–	–	–	> 100	> 100	–
O=C(O)C1NCCc2c1[nH]c1ccccc21 (centres undefined)	> 100	> 100	> 100	> 100	> 100	> 100	> 100 µM	> 100	> 100	> 100	> 100 µM	–	> 100	> 100	> 10	> 10	–
COC(=O)C(=O)C(C(=O)C(=O)Nc1ccc(Cl)cc1C)c1nc2ccc(C(=O)c3ccccc3)cc2[nH]c1=O (centres undefined)	> 100	> 100	> 100	> 100	–	–	> 100 µM	–	> 100	–	> 100 µM	–	> 100	–	–	–	–

— PubChem BioAssay (NCI)
